Measurements reported in patent US20220395458A1, “PREVENTION OF VISIBLE PARTICLE FORMATION IN AQUEOUS PROTEIN SOLUTIONS” (Hoffmann-La Roche Inc., priority 2019, published 2022).
≈ marks a conversion by molar mass, not a printed value.

What was measured:
[1] = Visible particles in E/P box (Ph. Eur. 2.9.20) after spiking FFA to inorganic salt solutions; assay type: physicochemical; settings: FFA below solubility limit; for Visible particles E/P d0: d0 directly after spiking
Experimental: (§1) Aqueous stock solutions were prepared in 0.02% PS20 (Croda. Edison, N.J., USA) at defined concentrations of (1) 5 mg/mL and (2) 12.5 mg/mL (lauric acid. Sigma-Aldrich/Merck. Darmstadt. Del.) or (1) 1.5 mg/mL and (2) 5 mg/mL (myristic acid, Sigma-Aldrich/Merck. Darmstadt. Del.) as previously described by Doshi et al.^6 The procedure was adapted that the FFA/PS20 stock solution was sterile filtered using 0.22 μm PVDF Steriflip filters (Merck Millipore. Darmstadt. Del.) before 1:10 dilution and subsequently homogenized without a magnetic stirrer using a Heidolph Rotamax 120 orbital shaker (Schwabach. Del.) at 100 rpm at 25° C., for 1 hour. After 1:500 dilution, the solution was homogenized for 1 hour at 25° C., before homogenization at 2-8° C., overnight, 12-40 μL of stock solution were used for spiking experiments yielding final FFA concentrations of (1) 10 μg/mL and (2) 25 μg/mL (lauric acid) or (1) 3 μg/mL and (2) 10 μg/mL (myristic acid). Dilutions with stock solutions 1 yield FFA concentration below their solubility limit, whereas stock solutions 2 act as positive control confirmed by the formation of visible particles. FFA concentrations were verified for selected by LC-MS samples acc. Honemann et al.^7
Aqueous stock solutions of different salts were prepared at 1 mg/mL and used for spiking experiments to final concentrations between […]. NaCl, NaAlO2. NaBO2. B2O3, and CaCl2 (Sigma-Aldrich/Merck. Darmstadt. Del.) were selected as their dissolution products (ions) represent typical glass leachables from Type I borosilicate glass. The pH of the NaAlO2 and NaBO2 stock solutions was adjusted to pH 6 using HCl and subsequently filtered using 0.22 μm PVDF Sterivex filters (Merck Millipore. Darmstadt. Del.) and true elemental concentrations were determined by inductively-coupled plasma mass spectrometry (ICP-MS). Elemental concentrations were 0,048 μg/mL Aluminium and 295 μg/mL sodium and 78 μg/mL boron and 168 μg/mL, respectively. Spiking experiments with FFA were performed in duplicates.
(§2) Samples were analyzed by visual inspection on a Seidenader V 90-T instrument (Seidenader Maschinenbau GmbH. Markt Schwaben. Del.) as previously described by Ditter et al.^9 and using a black/white panel according Ph. Eur. 2.9.20.^10 and classified as Many particles (>7). Few particles (4-7), or Practically free of particles (0-4) in E/P box, and Many particles (>10). Few particles (6-10). Essentially free of particles (1-5), or Free of particles (0) by Seidenader.
(§3) pH of all solutions was verified. Samples were visually inspected immediately after spiking and regularly for up to 7 days. Further characterization by HIAC, turbidity, FTIR, and SEM-EDX was performed on day 1 only. All samples were analyzed when equilibrated to room temperature (4 h).
Different inorganic salt solutions, i.e. CaCl2. NaAlO2. NaBO2. B2O3, and NaCl, were prepared simulating artificial glass leachables. Myristic and lauric acid, as main degradation product from hydrolytic PS20 degradation, were added at concentrations below their solubility limit and samples were analyzed for visible particles. SVP, and turbidity. Samples were compared against relevant controls and the pH verified at pH 6.

[2] = in water at room temperature; cited from earlier work
[3] = Visible particles (Seidenader) after spiking FFA to glass leachable solutions; assay type: physicochemical; design: key to Visible particles: relative ranking to each other from less to most particle fromation (+, ++, +++); relative ranking to each other from less to most particle fromation (+, ++, +++); relative ranking to each other from less to most particle fromation (+, ++, +++); settings: for Visible particles: FFA below solubility limit, up to 7 days, triplicates; for Visible particles d0: d0 directly after spiking
Experimental: as §1
Representative mixtures of glass leachables were obtained from three different types of glass vials, e.g. Exp 33 and Exp51 (Schott A G, Müllheim, D E, and Schott North America Inc., N.Y. USA) in the 6 mL format, by three autoclavation cycles (121° C., 20 min) representing accelerate aging conditions. Vials were filled with 6 mL of either water for injection (WFI), 20 mM glycine solution pH 10 or a typical placebo solution used for protein formulations consisting of 20 mM Histidine/Histdine-HCl buffer pH 6.0, 10 mM Methionine, 240 mM sucrose (Ferro Pfanstiehl. Waukegan. Ill. USA), and 0.02% PS20. The pH of the glycine solutions was adapted after autoclavation with HCl to pH 6.0 and filtered through a 0.22 μm PVDF Sterivex filters (Merck Millipore. Darmstadt. Del.) Leachable concentrations were verified ICP-MS (Table 1) as described by Ditter et al.^8 Spiking experiments with FFA were performed in triplicates,
as §2, §3
Glass leachables were generated from different types of glass vials, e.g. Exp33 and Exp51 vials, with different matrix solutions including WFI, a glycine solution adjusted to pH 6, and a placebo solution representative for a mAb formulation. Defined amounts of myristic and lauric acid below their solubility limit were added to the solutions/mixtures of glass leachables and analyzed. Visible particles in Seidenader are summarized in Table 3 and were detected for all samples in contrast to various controls. Particle formation was dependent on the glass leachable solution and dependent on incubation time. […] An example for the dependency of particle formation on incubation time is provided in Table 3 for myristic acid in glass leachable solution from Exp51 vials/glycine solution. The example highlights the kinetics of particle formation with no particles directly after spiking and more than 10 particles at incubation day 5 and 7. For selected samples, particles were further characterized and identified by FTIR confirming the presence of free fatty acids. […]

[4] = CaCl2 250 μg/mL (Ca2+ 90 μg/mL)
[5] = CaCl2 500 μg/mL (Ca2+ 180 μg/mL)
[6] = CaCl2 1000 μg/mL (Ca2+ 360 μg/mL)
[7] = NaAlO2 nominal 250 μg/mL (0.012 μg/mL ion)
[8] = NaAlO2 nominal 500 μg/mL (0.024 μg/mL ion)
[9] = NaAlO2 nominal 1000 μg/mL (0.048 μg/mL ion)
[10] = glass leachable solution Exp33 vials, 3xTS Placebo
[11] = glass leachable solution Exp33 vials, 3xTS WFI
[12] = glass leachable solution Exp51 vials, 3xTS Glycine pH 6
[13] = glass leachable solution Exp51 vials, 3xTS Placebo
[14] = glass leachable solution Exp51 vials, 3xTS WFI
[15] = Exp51 vials, 3xTS Glycine pH 6, samples 1-3
[16] = Exp51 vials, 3xTS Glycine pH 6, samples 1-3, listed as myristic acid

SMILES | Visible particles E/P d0 [1, 4] | Visible particles E/P d2 [1, 4] | Visible particles E/P d7 [1, 4] | Visible particles E/P d0 [1, 5] | Visible particles E/P d7 [1, 5] | Visible particles E/P d0 [1, 6] | Visible particles E/P d2 [1, 6] | Visible particles E/P d7 [1, 6] | Visible particles E/P d0 [1, 7] | Visible particles E/P d1 [1, 7] | Visible particles E/P d2 [1, 7] | Visible particles E/P d7 [1, 7] | Visible particles E/P d0 [1, 8] | Visible particles E/P d1 [1, 8] | Visible particles E/P d2 [1, 8] | Visible particles E/P d0 [1, 9] | Visible particles E/P d1 [1, 9] | Visible particles E/P d7 [1, 9] | solubility level [2] | Visible particles [3, 10] | also measured
CCCCCCCCCCCC(=O)O [Lauric acid, lauric acid] | / (Practically free of particles (0-4, /) in E/P box) | / (Practically free of particles (0-4, /) in E/P box) | / (Practically free of particles (0-4, /) in E/P box) | / (Practically free of particles (0-4, /) in E/P box) | / (Practically free of particles (0-4, /) in E/P box) | / (Practically free of particles (0-4, /) in E/P box) | xx (Few particles (4-7, xx)) | / (Practically free of particles (0-4, /) in E/P box) | / (Practically free of particles (0-4, /) in E/P box) | / (Practically free of particles (0-4, /) in E/P box) | / (Practically free of particles (0-4, /) in E/P box) | / (Practically free of particles (0-4, /) in E/P box) | / (Practically free of particles (0-4, /) in E/P box) | / (Practically free of particles (0-4, /) in E/P box) | / (Practically free of particles (0-4, /) in E/P box) | / (Practically free of particles (0-4, /) in E/P box) | / (Practically free of particles (0-4, /) in E/P box) | / (Practically free of particles (0-4, /) in E/P box) | 15 µg/mL (≈ 74.9 µM) | +++ | Visible particles E/P d2 [1, 5]: / (Practically free of particles (0-4, /) in E/P box); Visible particles E/P d7 [1, 8]: / (Practically free of particles (0-4, /) in E/P box); Visible particles E/P d2 [1, 9]: / (Practically free of particles (0-4, /) in E/P box); Visible particles [3, 11]: +; Visible particles [3, 12]: ++; Visible particles [3, 13]: +++; Visible particles [3, 14]: ++
CCCCCCCCCCCCCC(=O)O [Myristic acid, myristic acid] | / (Practically free of particles (0-4, /) in E/P box) | / (Practically free of particles (0-4, /) in E/P box) | xxx (Many particles (>7, xxx)) | / (Practically free of particles (0-4, /) in E/P box) | xxx (Many particles (>7, xxx)) | / (Practically free of particles (0-4, /) in E/P box) | xxx (Many particles (>7, xxx)) | xxx (Many particles (>7, xxx)) | / (Practically free of particles (0-4, /) in E/P box) | / (Practically free of particles (0-4, /) in E/P box) | / (Practically free of particles (0-4, /) in E/P box) | / (Practically free of particles (0-4, /) in E/P box) | / (Practically free of particles (0-4, /) in E/P box) | / (Practically free of particles (0-4, /) in E/P box) | / (Practically free of particles (0-4, /) in E/P box) | / (Practically free of particles (0-4, /) in E/P box) | / (Practically free of particles (0-4, /) in E/P box) | xxx (Many particles (>7, xxx)) | 7 µg/mL (≈ 30.7 µM) | + | Visible particles E/P d1 [1, 4]: / (Practically free of particles (0-4, /) in E/P box); Visible particles E/P d1 [1, 5]: xx (Few particles (4-7, xx)); Visible particles E/P d1 [1, 6]: xxx (Many particles (>7, xxx)); Visible particles d0 [3, 15]: 1-5 particles; Visible particles d0 [3, 16]: no particles; Visible particles d1 ([3]; Exp51 vials, 3xTS Glycine pH 6, d1, samples 1-3): 1-5 particles; Visible particles d5/7 [3, 15]: >10 particles; Visible particles d5/7 [3, 16]: more than 10 particles; Visible particles ([3]; glass leachable solution Exp33 vials, 3xTS Glycine pH 6): +; Visible particles [3, 11]: +; Visible particles [3, 12]: +++; Visible particles [3, 13]: +; Visible particles [3, 14]: +
